From patent US20240207308A1, “METHOD FOR CULTURING DENDRITIC CELLS” (NANOFAENTECH CO., LTD., priority 2021, published 2024) come the findings set out here.

Common to all, as to format: cell-based, mouse
The subject of test [1] is spleen dendritic cells. The test is described as follows: Fluorescence staining of CD86 in spleen dendritic cells, confocal microscope. Conditions: without LPS, linker peptides 400 μg/mL, 24 hours. As for the experimental part: In FIG. 11, culturing spleen dendritic cells (2×10^5/mL) and the prepared peptides were added at a concentration of 200 μg/mL, respectively, and after 6 hours, the expression level of CD86 using a PE-conjugated anti-CD86 antibody (eBioscience) was measured through a confocal microscope after fluorescence staining. After culturing spleen primary dendritic cells for a certain period of time, intracellular CD86, F-actin and nuclear staining was implemented. Expression of actin was stained with FITC-conjugated phalloidin (eBioscience), and nuclear staining was conducted with Hoechst 33342 (Sigma-Aldrich). For this purpose, cells cultured in a 48-well plate were placed in a 4% paraformaldehyde fixing solution, and then fixed at room temperature for 20 minutes.
Then, after washing twice with phosphate buffered saline solution, it was permeabilized with 0.1% Triton X-100 (Sigma-Aldrich) solution at room temperature for 5 minutes and washed twice with phosphate buffered saline solution. In order to remove non-specific staining, after reacting with 0.2% bovine serum albumin (Sigma-Aldrich) solution at room temperature for 20 minutes, it was washed twice with phosphate buffered saline solution. After that, the anti-CD86 antibody and phalloidine were diluted in 0.2% bovine serum albumin solution at a ratio of 1:40 and reacted for 40 minutes, washed 3 times with Tris buffer, placed on a slide glass, followed by counter-staining with Hoechst 33342 solution for nuclear staining of cells. After sealing with a cover glass, the cells were observed using a confocal laser microscope (K1 nanoscope).
In FIG. 26, spleen dendritic cells (2×10^5/mL) were dispensed in a 48-well plate, and linker peptides were each added at a concentration of 400 μg/mL, followed by culturing for 24 hours. Activation of spleen dendritic cells was induced by adding 1 μg/mL of LPS to the culture medium. The cultured cells were placed in a 4% paraformaldehyde fixing solution and fixed at room temperature for 20 minutes. After fluorescence staining using PE-conjugated anti-CD86 antibody (eBioscience), it was measured with a confocal microscope (K1 Nanoscope, Korea). Intracellular actin expression was stained with FITC-conjugated phalloidin (eBioscience), and nuclear staining was conducted with Hoechst 33342 (Sigma-Aldrich). CD86 antibody and phalloidin were diluted 1:40 in 0.2% bovine serum albumin solution and used.

Test [2] deals with spleen dendritic cells. The test is described as follows: Flow cytometry of CD86, MHC-II, CD80, CD40 on cultured spleen dendritic cells (self-activation). The settings on record: for increase in CD86 expression by self-activation: different concentrations up to 800 μg/mL; for increase in CD86 expression by self-activation / increase in the expression of CD86: 2×10^5/mL cells; for increase in the expression of CD86: each at 800 μg/mL, 24 hours. As for the experimental part:
Mouse spleen dendritic cells were obtained by adding EDTA-BSS (Balanced Salt Solution) buffer and collagenase solution (DMEM containing 100 units of collagenase type IV, medium containing low glucose) to spleens of female C57BL/6 mice and cutting it with surgical scissors, mixing the same with 6 mL of collagenase treatment solution, and incubating the mixture for 30 minutes. The separated whole spleen tissue was filtered using a 70 μm cell strainer (Falcon), followed by centrifugation at 1800 rpm for 5 minutes thus to separate the cells. Red blood cells were removed by adding red blood cell lysis buffer (Sigma-Aldrich) to the cells and washed twice with RPMI-1640 medium containing 10% fetal bovine serum (FBS). Dendritic cells were reacted with CD11c^+ antibody-bound microbeads and isolated using CD11c Microbeads Ultrapure (MACS, Milteni Biotec, USA).
In FIG. 2, in order to determine whether self-activation occurs when primary dendritic cells isolated from the spleen are cultured, dendritic cells were dispensed in a 24-well plate at 2×10^5/mL, and after culturing for 6 hours in RPMI-1640 medium at 37° C. under 5% CO2 condition, the expression levels of MHC-II, CD86, CD80 and CD40 were analyzed on the surface of dendritic cells using a flow cytometer (MACSQuant VYB flow cytometer, Miltenyi Biotec). Results measured using a flow cytometer were analyzed using FlowJo v10 (Tree Star, Ashland). The expression levels of CD86, CD80 and CD40 were shown as the percentage of cells stained with CD11c, and the expression level of MHC-II was shown as mean fluorescence intensity (MFI), which is the mean fluorescence intensity of fluorescence.
In FIG. 7, when culturing spleen dendritic cells, each of the prepared peptides was added at a concentration of 200 μg/mL and the expression level of CD86 was measured 6 hours after culture. When each peptide was used alone for treatment, the expression of CD86 was not inhibited in spleen dendritic cells. […] Compared to when the cells were treated with these three kinds of peptides, the expression was not inhibited even when the two kinds of peptides were used together for treatment. * indicates statistical significance as P<0.05 or less compared to the P1, P1-2, and P2-1 conditions.
In FIG. 9, peptides containing P1 and P2 and amino acids of these peptides as well as P3 peptide in a combination of three types were added to the spleen dendritic cell culture medium, and after culturing for 6 hours, the expression level of CD86 was measured by flow cytometry.
In FIG. 24, different concentrations of LP1, LP2 and LP3 were added to reach a concentration of 800 μg/mL, and spleen dendritic cells (2×10^5/mL) were cultured for 6 hours or 24 hours, and the CD86 expression level was measured by flow cytometry (MACSQuant VYB flow cytometer, Miltenyi Biotec). The measured results were analyzed using FlowJo v10 (Tree Star, Ashland).
In FIG. 25, when spleen primary dendritic cells were dispensed at 2×10^5/mL and cultured for 24 hours while scrambled peptides of S-LP1, S-LP2 and S-LP3 were each added at a concentration of 800 μg/mL, the increase in the expression of CD86 was not inhibited. Further, the expression of CD86 was not reduced even when the scrambled peptides S-P1, S-P2 and S-P3 were simultaneously treated at a concentration of 600 μg/mL, respectively.
In general terms: A flow cytometer gives signals particle by particle.

Test [3] has as its system spleen primary dendritic cells. The test is described as follows: ELISA of TNF-α / IL-12p40 secreted by cultured spleen primary dendritic cells. The settings on record: cells 2×10^5/mL, 24 hours, without LPS. As for the experimental part:
In FIG. 12, spleen primary dendritic cells were dispensed at 1×10^6/mL and cultured for 24 hours, and then a concentration of TNF-α secreted from these cells in the culture medium was measured. As a result, it was confirmed that the secretion increased in a time-dependent manner. The concentration of TNF-α was measured at 450 nm using an ELISA kit (R&D systems) and a microplate analyzer (Synergy H1, Biotek). However, when dendritic cells were dispensed at 2×10^5/mL, CD86 expression was increased but TNF-α secretion was not increased (results not presented). * indicates statistical significance as P<0.05 or less compared with 3 h.
In FIG. 13, spleen primary dendritic cells were dispensed at 1×10^6/mL and cultured for 24 hours. […] Furthermore, when P4, P5 and P6 peptides were added at a concentration of 200 μg/mL, respectively, the secretion of TNF-α was not inhibited.
Therefore, it could be seen that fibronectin has a disadvantage of inhibiting the activation by stimulants although can maintain the inactivation of spleen dendritic cells. * indicates statistical significance as P<0.05 or less compared to -LPS.
In FIG. 27, an ELISA kit (R&D systems) was used to measure the concentration of TNF-α secreted into the culture medium when spleen primary dendritic cells were dispensed at 2×10^5/mL and cultured for 24 hours. The concentration was determined at 450 nm by a microplate analyzer (Synergy H1, Biotek).
In general terms: An ELISA detects its analyte on a solid surface through an enzyme-linked reagent.

The subject of test [4] is spleen T cells from Balb/c mice. Briefly: Mixed lymphocyte reaction: proliferation of CFSE-stained allogeneic T cells co-cultured with spleen dendritic cells. The settings on record: dendritic cells without peptide or fibronectin, activated with the stimulant, compared to control. As for the experimental part: Since the main role of activated dendritic cells is to induce antigen-specific T-cell activation and proliferation according to the stimulatory properties, it was investigated whether self-activated dendrite cells after culturing and dendritic cells activated with LPS after culturing with addition of peptides can induce T cell proliferation by mixed lymphocyte reaction (MLR) test. The spleen dendritic cells isolated from C57B/L6 mice were self-activated for 24 hours, otherwise, when cultured with addition of peptides or fibronectin, the cells were treated with LPS and activated. Spleen T cells from Balb/c mice were isolated using a CD4^+/CD8^+ T cell isolation kit (Miltenyi Biotec, Bergisch-Gladbach, Germany) and MACS column (Miltenyi Biotec), followed by 10 μM CFSE staining (Molecular Probes; Thermo Fisher Scientific Inc., USA). The activated dendritic cells and CFSE-stained T cells were co-cultured at a ratio of 1:20 for 4 days, and the T cell proliferation level was measured as a percentage of cells with decreased CFSE. […] In FIG. 22, the amount of cytokines secreted after co-culture of spleen dendritic cells and T cells for 4 days was measured by ELISA method. […]

Turning to “PHSRNGGGSGGGSRGDGGGSLDV (Linker peptide LP3)”, the CD86-expressing cells entry in the test on spleen dendritic cells [1] was “almost not observed”. In addition, in the test with spleen dendritic cells [2] (6 hours or 24 hours), the “increase in CD86 expression by self-activation” value (from here on “increase in CD86 expression”) is reported as “inhibited”. The “self-activation inhibitory effect compared among LP1, LP2 and LP3” value in the test on spleen dendritic cells [2] (up to 800 μg/mL, 6 hours or 24 hours) was “greatest self-activation inhibitory effect”. The TNF-α secretion entry in test [3] is reported as “hardly occurred”.
Consider “PHSRNGGGSRGDGGGSLDV (Linker peptide LP2)”, for which, in the test on spleen dendritic cells [1], the CD86-expressing cells result is recorded as “almost not observed”. In the test with spleen dendritic cells [2] (6 hours or 24 hours), the “increase in CD86 expression” value is “inhibited”. In test [3], the TNF-α secretion result is given as “hardly occurred”.
Regarding laminin, the “expression level of CD86 or MHC-II (self-activation)” value in the test with spleen dendritic cells [2] (200 μg/mL (laminin 200 μg/mL or higher), cultured 6 hours) is on record as “self-activation was not inhibited”. In the test on spleen dendritic cells [2] (cultured 6 hours or 24 hours, peptides 200 μg/mL each), the “expression of MHC-II, CD80 and CD40 in addition to CD86” value is given as “no effect was observed”.
For “NRPHSGGGSDRGGGGSVDL (Scrambled linker peptide S-LP2) [scrambled linker peptide, control, reference compound]”, the “increase in the expression of CD86” value in the test with spleen dendritic cells [2] is “not inhibited”.
On to “polyinosinic:polycytidylic acid [poly (I:C), reference compound]”, for which the “proliferation of co-cultured spleen T cells” value in test [4] was “slightly increased”.
On to “NRPHSGGGSGGGSDRGGGGSVDL (Scrambled linker peptide S-LP3) [scrambled linker peptide, control, reference compound]”, for which, in the test with spleen dendritic cells [2], the “increase in the expression of CD86” value was “not inhibited”.
Consider PHSRNGSRGDGSLDV (Linker peptide LP1), for which the CD86-expressing cells entry with spleen dendritic cells [1] is given as “almost not observed”. The “increase in CD86 expression” value with spleen dendritic cells [2] (6 hours or 24 hours) is recorded as “inhibited”. Besides, the TNF-α secretion entry in test [3] was “hardly occurred”.
For the substance “Pro-His-Ser-Arg-Asn (PHSRN; Fibronectin motif P3) [Peptide P3]”, in the test with spleen dendritic cells [2] (treated alone at 600 μg/mL, 6 hours), the “expression level of CD86” value is reported as “no inhibitory effect”.
As to “NRPHSGSDRGGSVDL (Scrambled linker peptide S-LP1) [scrambled linker peptide, control, reference compound]”, the “increase in the expression of CD86” value in the test on spleen dendritic cells [2] is listed as “not inhibited”.
